According to patent US7084268B1, “Carbapenem compound crystals and interjection preparations” (Eisai Co., Ltd., priority 1999, dated 2006):
Where “and” joins values, the source holds several entries; their conditions need not be identical. Equal values may be shown once. Where a name gives a salt, the structure may show the parent alone.

Key:
Format in all cases: physicochemical
[1] = Storage of crystals in bottles without caps at various relative humidity, with or without oxygen absorbent; conditions: 25° C., 2 weeks, listed as monohydrate crystals, monohydrochloride monohydrate
[2] = Solubility in 62.5% (v/v) aqueous organic solvents, quantification in HPLC; conditions: for solubility at 30 min: aqueous organic solvent, 20 °C, aqueous with cosolvent or surfactant or cyclodextrin, thermodynamic from solid
Experimental: The solubility of (+)-(1R,5S,6S)-6-[(R)-1-hydroxyethyl]-1-methyl-2-[(2S,4S)-2-[(3R)-pyrrolidine-3-yl-(R)-hydroxymethyl]pyrrolidine-4-yl]thio-1-carbapen-2-em-3-carboxylic acid monohydrochloride monohydrate and trihydrate in various aqueous organic solvents at a concentration of 62.5% (v/v) in water at 20° C. was determined by HPLC in the following manner.

[3] = Effect of degasification of the air in a vial and/or replacement by nitrogen (storage of powdery charged preparations); conditions: for HPLC impurity, mean / content of residual carbapenem compound, mean: N=3
Experimental: As the monohydrate crystals, the powdery charged preparation of the novel carbapenem hydrochloride crystals (25 mg/vial) obtained in the method in Example 2-3 (replacement by nitrogen), the powdery charged preparation (25 mg/vial) subjected to replacement by oxygen in place of replacement by nitrogen in Example 2-3, and the powdery charged preparation (25 mg/vial) not subjected to replacement in Example 2-2 were stored at 60° C. for 5 days (N=3) and then measured for their color difference (ΔE), water content, powdery x-ray diffraction pattern, content of residual carbapenem and HPLC impurities. As the trihydrate crystals, the powdery charged preparation of the novel carbapenem hydrochloride crystals (25 mg/vial) obtained by the method (replacement by nitrogen) in Example 1-9 and the powdery charged preparation (25 mg/vial) not subjected to replacement in Example 1-8 were stored at 40° C. for 1 month and then measured for their color difference (ΔE), water content and content of residual carbapenem. The color difference was evaluated by a color difference meter (ZE-200, Nippondenso Co., Ltd.); the water content by a Karl-Fisher moisture meter (CA-05, Mitsubishi Kagaku Kogyo); the powdery X-ray diffraction under the method and conditions in Example 1-1 or 2-1; and the content of residual carbapenem and HPLC impurities by high performance liquid chromatography (Shimadzu Corporation). The color difference (ΔE) is a parameter indicative of a change in the color of the outward appearance of crystals, and its higher value indicates a greater coloration change than at an initial stage (just after production).

[4] = Storage of crystals in bottles without caps at various relative humidity, with or without oxygen absorbent; conditions: for water content (hygroscopicity): 25° C., 2 weeks, listed as monohydrate crystals, monohydrochloride monohydrate
Experimental: The novel carbapenem hydrochloride crystals were weighed in 25 mL wide-mouthed glass bottles (30 mg/bottle), and in the bottles without caps, the monohydrate was stored for 1 week at 40° C. at a relative humidity of 0%, 19.2%, 53% and 75%, and the trihydrate was stored for 2 weeks at 25° C. at a relative humidity of 11%, 33%, 51%, 75% and 93%. Then, the crystals were measured for their color difference (ΔE), water content, powdery X-ray diffraction pattern, and content of residual carbapenem. The monohydrate was also examined in the presence or absence of an oxygen absorbent (trade name: Ageless, produced by Mitsubishi Gas Chemical Co., Ltd.) during storage at each relative humidity. The oxygen absorbent makes oxygen-free conditions under which the preparation is placed.

[5] = 25 mg/vial, control (air), no replacement, stored 60° C. for 5 days
[6] = 25 mg/vial, control (air), no replacement, stored 60° C. for 5 days, monohydrochloride monohydrate
[7] = 25 mg/vial, gas for replacement nitrogen, stored 60° C. for 5 days
[8] = 25 mg/vial, gas for replacement nitrogen, stored 60° C. for 5 days, monohydrochloride monohydrate
[9] = 25 mg/vial, gas for replacement oxygen, stored 60° C. for 5 days
[10] = 25 mg/vial, gas for replacement oxygen, stored 60° C. for 5 days, monohydrochloride monohydrate
[11] = monohydrate powdery charged preparation, initial stage
[12] = 40° C., 1 week, relative humidity 0%, oxygen absorbent absence
[13] = 40° C., 1 week, relative humidity 0%, oxygen absorbent presence
[14] = 40° C., 1 week, relative humidity 19.2%, oxygen absorbent absence
[15] = 40° C., 1 week, relative humidity 19.2%, oxygen absorbent presence
[16] = 40° C., 1 week, relative humidity 53%, oxygen absorbent absence
[17] = 40° C., 1 week, relative humidity 53%, oxygen absorbent presence
[18] = 40° C., 1 week, relative humidity 75%, oxygen absorbent absence
[19] = 40° C., 1 week, relative humidity 75%, oxygen absorbent presence
[20] = monohydrate crystals, initial stage

- water content (hygroscopicity) ([1]; relative humidity 11%): 5.0%
- water content (hygroscopicity) ([1]; relative humidity 75%): 6.2%
- water content (hygroscopicity) ([1]; relative humidity 93%): 8.4%
- solubility ([2]; 62.5% (v/v) diethylene glycol monoethyl ether in water, 20° C., 30 minutes, monohydrochloride monohydrate): 6560 µg/mL
- solubility at 30 min ([2]; 62.5% (v/v) 1-ethoxy-2-propanol in water): 5060 µg/mL
- solubility at 30 min ([2]; 62.5% (v/v) 1-methoxy-2-propanol in water): 4120 µg/mL
- solubility at 30 min ([2]; 62.5% (v/v) 2-ethoxyethanol in water): 6740 µg/mL
- solubility at 30 min ([2]; 62.5% (v/v) 2-isopropoxyethanol in water): 6030 µg/mL
- solubility at 30 min ([2]; 62.5% (v/v) 2-methoxyethanol in water): 5370 µg/mL
- solubility at 30 min ([2]; 62.5% (v/v) 3-methoxy-3-methyl-1-butanol in water): 5930 µg/mL
- solubility at 30 min ([2]; 62.5% (v/v) 3-methoxybutanol in water): 4390 µg/mL
- solubility at 30 min ([2]; 62.5% (v/v) IPA (isopropyl alcohol) in water): 6310 µg/mL
- solubility at 30 min ([2]; 62.5% (v/v) acetonitrile in water): 15800 µg/mL
- solubility at 30 min ([2]; 62.5% (v/v) diethylene glycol monomethyl ether in water): 3930 µg/mL
- solubility at 30 min ([2]; 62.5% (v/v) dimethyl acetamide in water): 4060 µg/mL
- solubility at 30 min ([2]; 62.5% (v/v) dimethyl ether in water): 1930 µg/mL
- solubility at 30 min ([2]; 62.5% (v/v) dimethyl formamide in water): 5030 µg/mL
- solubility at 30 min ([2]; 62.5% (v/v) dimethyl sulfoxide in water): 7500 µg/mL
- solubility at 30 min ([2]; 62.5% (v/v) ethanol in water): 6600 µg/mL
- solubility at 30 min ([2]; 62.5% (v/v) methanol in water): 10200 µg/mL
- solubility at 30 min ([2]; 62.5% (v/v) n-propanol in water): 12300 µg/mL
- solubility at 30 min ([2]; 62.5% (v/v) t-butanol in water): 8650 µg/mL
- solubility at 30 min ([2]; 62.5% (v/v) tetrahydrofuran in water): 7220 µg/mL
- solubility at 30 min ([2]; 62.5% (v/v) triethylene glycol monomethyl ether in water): 2860 µg/mL
- powdery X-ray diffraction pattern [3, 5]: no change
- HPLC impurity, mean [3, 5]: 0.63%
- content of residual carbapenem compound, mean [3, 5]: 98.40%
- HPLC impurity [3, 6]: 0.62% and 0.64%
- color difference (ΔE) [3, 6]: 10.48 and 11.21 and 10.41
- content of residual carbapenem compound [3, 6]: 98.6% and 98.1%
- water content [3, 6]: 5.87% and 5.93%
- powdery X-ray diffraction pattern [3, 7]: no change
- HPLC impurity, mean [3, 7]: 0.63%
- content of residual carbapenem compound, mean [3, 7]: 98.40%
- HPLC impurity [3, 8]: 0.63% and 0.64%
- color difference (ΔE) [3, 8]: 4.23 and 4.57 and 5.23
- water content [3, 8]: 5.80% and 5.78% and 5.77%
- powdery X-ray diffraction pattern [3, 9]: no change
- HPLC impurity, mean [3, 9]: 0.64%
- content of residual carbapenem compound, mean [3, 9]: 97.80%
- HPLC impurity [3, 10]: 0.63% and 0.64%
- color difference (ΔE) [3, 10]: 12.7 and 12.14 and 11.46
- content of residual carbapenem compound [3, 10]: 97.5% and 98.1% and 97.8%
- water content [3, 10]: 5.78% and 5.77% and 5.75%
- HPLC impurity [3, 11]: 1.03%
- water content [3, 11]: 5.99%
- water content (hygroscopicity) ([4]; relative humidity 33%): 5.6%
- water content (hygroscopicity) ([4]; relative humidity 51%): 5.9%
- color difference (ΔE) [4, 12]: 1.87
- content of residual carbapenem compound [4, 12]: 101.1%
- powdery X-ray diffraction pattern [4, 12]: no change
- water content [4, 12]: 5.08%
- color difference (ΔE) [4, 13]: 2.95
- content of residual carbapenem compound [4, 13]: 100.3%
- powdery X-ray diffraction pattern [4, 13]: no change
- water content [4, 13]: 5.31%
- color difference (ΔE) [4, 14]: 5.01
- content of residual carbapenem compound [4, 14]: 99.9%
- powdery X-ray diffraction pattern [4, 14]: no change
- water content [4, 14]: 6.18%
- color difference (ΔE) [4, 15]: 3.97
- content of residual carbapenem compound [4, 15]: 100.5%
- powdery X-ray diffraction pattern [4, 15]: no change
- water content [4, 15]: 5.72%
- color difference (ΔE) [4, 16]: 6.28
- content of residual carbapenem compound [4, 16]: 100.6%
- powdery X-ray diffraction pattern [4, 16]: no change
- water content [4, 16]: 6.17%
- color difference (ΔE) [4, 17]: 5.85
- content of residual carbapenem compound [4, 17]: 102.0%
- powdery X-ray diffraction pattern [4, 17]: no change
- water content [4, 17]: 6.29%
- color difference (ΔE) [4, 18]: 35.98
- content of residual carbapenem compound [4, 18]: 99.8%
- powdery X-ray diffraction pattern [4, 18]: no change
- water content [4, 18]: 6.60%
- color difference (ΔE) [4, 19]: 4.56
- content of residual carbapenem compound [4, 19]: 100.8%
- powdery X-ray diffraction pattern [4, 19]: no change
- water content [4, 19]: 6.43%
- HPLC impurity [4, 20]: 0.93%
- water content [4, 20]: 5.49%
SMILES: C[C@@H](O)[C@H]1C(=O)N2C(C(=O)O)=C(S[C@@H]3CN[C@H]([C@H](O)[C@@H]4CCNC4)C3)[C@H](C)[C@H]12 [monohydrate, (+)-(1R,5S,6S)-6-[(R)-1-Hydroxyethyl]-1-methyl-2-[(2S,4S)-2-[(3R)-pyrrolidine-3-yl-(R)-hydroxymethyl]pyrrolidine-4-yl]thio-1-carbapen-2-em-3-carboxylic acid monohydrochloride monohydrate]
- solubility at 30 min ([2]; 62.5% (v/v) 1-acetoxy-2-methyl ethane in water): 4180 µg/mL
- solubility at 30 min ([2]; 62.5% (v/v) 2-butoxyethanol in water): 13300 µg/mL
